Source: patent US5534498A, “Trypsin inhibitors” (Corvas International, Inc., priority 1993, dated 1996)
Non-standard residues stand in square brackets, D forms with d. Residues, ends and D or L forms follow the SMILES beside them. *: point of attachment. Boc = CC(C)(C)OC(=O)*

Columns and labels:
[1] = molecular target: T1, Factor VIIa:rTF complex (Homo sapiens, UniProt P08709); assay: Factor VIIa assay (S-2288 substrate); assay type: biochemical
T1 construct: 2.5 ml 400 nMhuman Factor VIIa
Experimental: (§1) The specificity of the peptide aldehydes (8 through 12) was determined in vitro by measurement of their IC50 against other enzymes involved in hemostasis. A specific concentration of enzyme and its substrate were challenged with varying concentrations of inhibitor. IC50 is that concentration of inhibitor giving 50% inhibition of substrate turnover, under the assay conditions. Specific assay procedures used are presented below.
(§2) 96-well microtiter plates were prepared for use in these assays by incubating each well with 300 μL 1% bovine serum albumin (in deionized water) for 30 minutes at 37° C., then washing three times with deionized water.
Enzyme activity was determined using as substrate, S-2288 [D-isoleucyl-L-prolyl-L-arginine-p-nitroanilide dihydrochloride], purchased from Kabi Diagnostica. The substrate was made up in deionized water prior to use.
Both solutions were then incubated for 30 minutes at room temperature before use in the assay.
(§3) The assay was run by combining in appropriate wells 50 μL inhibitor in TBS or TBS alone and 100 μL of Factor VIIa:rTF complex or background control, incubating this mixture for 30 minutes at room temperature, adding 50 μL of 2 mM S-2288, incubating for an additional 30 to 60 minutes at room temperature, then reading the absorbance of the wells at 405 nm on a microtiter plate reader set with background substraction at 650 nm.

[2] = molecular target: recombinant tissue plasminogen activator (Homo sapiens, UniProt P00750); assay: Tissue plasminogen activator assay (S-2288 substrate); assay type: biochemical
Sequence of recombinant tissue plasminogen activator (P00750 36-562): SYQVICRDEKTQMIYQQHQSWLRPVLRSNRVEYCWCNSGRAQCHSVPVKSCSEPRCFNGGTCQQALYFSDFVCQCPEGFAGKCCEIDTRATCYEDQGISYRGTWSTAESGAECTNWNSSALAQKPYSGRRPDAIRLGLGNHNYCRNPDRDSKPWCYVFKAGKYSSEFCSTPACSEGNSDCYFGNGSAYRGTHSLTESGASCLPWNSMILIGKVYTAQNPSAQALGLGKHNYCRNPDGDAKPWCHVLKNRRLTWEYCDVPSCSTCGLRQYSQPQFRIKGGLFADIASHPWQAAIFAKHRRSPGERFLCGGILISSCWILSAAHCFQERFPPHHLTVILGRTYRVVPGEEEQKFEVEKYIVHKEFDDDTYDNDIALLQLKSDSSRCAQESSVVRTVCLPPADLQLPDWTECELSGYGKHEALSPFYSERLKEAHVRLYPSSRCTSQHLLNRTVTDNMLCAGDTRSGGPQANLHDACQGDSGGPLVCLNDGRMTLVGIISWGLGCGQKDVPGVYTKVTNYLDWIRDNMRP
Experimental: as §1, with “IC50 is that concentration of inhibitor giving 50% inhibition of substrate turnover, under the assay conditions.” left out
as §2
(§4) The substrate was made up in deionized water prior to use.

[3] = molecular target: bovine and human pancreatic trypsin; assay: Potency: determination of inhibitor constant Ki against trypsin (S-2222 substrate, Dixon plot); assay type: biochemical; conditions: 37° C., TBS pH 7.4, 15 min preincubation, read-out: Ki For Peptide Aldehydes Against Trypsin
Experimental: The potency and specificity of the compounds of the present invention are determined by in vitro assay methods well known in the art. […] Specifically, the inhibitor constant, Ki, of the compounds can be determined by the method of Dixon, Biochem. J. 55:170 (1953). The specificity is assessed by determination of the concentration, IC50, of compound required to give 50% inhibition of the enzymatic activity of the coagulation enzymes, kallikrein, factor XIa, factor VIIa, factor Xa, thrombin; the fibrinolysis enzymes, plasmin, tissue plasminogen activator (tPA), and urokinase (UK), and the anticoagulation enzyme, protein C. Specificity is found when the concentration of compound giving 50% inhibition of trypsin is low relative to the concentration required to give like inhibition of the other enzymes.
Enzyme activity was determined using as substrate S-2222 [N-benzoyl-L-isoleucyl-L-glutamyl-glycyl-L-arginine-p-nitroanilide hydrochloride where glutamyl side chain is 50% carboxylic acid and 50% methyl ester], purchased from Kabi Diagnostica. The substrate was made up in deionized water prior to use.
A 96-well microtiter plate was prepared for use in the assay by incubating each well with 300 μL of 1% bovine serum albumin (in deionized water) for 30 minutes at 37° C., and washing three times with deionized water.
To each well was added 50 μL TBS (0.1M Tris, 0.14M NaCl, pH 7.4), 50 μL 2.5 nM trypsin and 50 μL peptide aldehyde in TBS or TBS alone. After incubating for 15 minutes at 37° C., 50 μL of S-2222 (at 37° C.) at a specified concentration was added to each well. After mixing, the rate of substramte turnover at 37° C. was measured for 30 minutes at 405 nm (generation of p-nitroaniline). The initial S-2222 concentrations in the assay mixture were 0.45, 0.23, 0.11, 0.056, and 0.028 mM.
Ki was determined graphically using a Dixon plot, as described in Dixon, Biochem. J. 55:170 (1953).

[4] = molecular target: T2, human urokinase (Homo sapiens, UniProt P00749); assay: Urokinase assay (S-2444 substrate); assay type: biochemical
T2 construct: 50 μL of 270 U/mL human urokinase
Experimental: as §1, §2
Enzyme activity was determined using as substrate S-2444 [L-pyroglutamyl-L-glycyl-L-arginine-p-nitroanilide hydrochloride], purchased from Kabi Diagnostica. The substrate was made up in deionized water prior to use.
as §3, with “50” for “100”, “270 U/mL human urokinase (or TBS as” for “Factor VIIa:rTF complex or”, “control) and 50 μL TBS,” for “control,”, “1” for “of 2”, “S-2444,” for “S-2288,”, “30” for “30 to 60”

[5] = molecular target: plasmin (Homo sapiens, UniProt P00747); assay: Plasmin assay (S-2251 substrate); assay type: biochemical; set-up: 50 μL 25 nM human plasmin; conditions: for IC50: 30 min preincubation, room temperature, tested 0.025-25 μM, Inact. = no inhibition at highest concentration
Sequence of plasmin (P00747 581-810 limits assumed): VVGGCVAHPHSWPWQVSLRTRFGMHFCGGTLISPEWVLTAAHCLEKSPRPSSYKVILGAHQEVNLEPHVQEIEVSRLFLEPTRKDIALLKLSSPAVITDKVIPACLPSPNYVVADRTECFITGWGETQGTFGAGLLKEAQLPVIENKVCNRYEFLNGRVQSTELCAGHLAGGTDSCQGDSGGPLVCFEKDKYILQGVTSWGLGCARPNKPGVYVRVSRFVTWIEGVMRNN
Sequence of plasmin (P00747 97-580 partner limits assumed): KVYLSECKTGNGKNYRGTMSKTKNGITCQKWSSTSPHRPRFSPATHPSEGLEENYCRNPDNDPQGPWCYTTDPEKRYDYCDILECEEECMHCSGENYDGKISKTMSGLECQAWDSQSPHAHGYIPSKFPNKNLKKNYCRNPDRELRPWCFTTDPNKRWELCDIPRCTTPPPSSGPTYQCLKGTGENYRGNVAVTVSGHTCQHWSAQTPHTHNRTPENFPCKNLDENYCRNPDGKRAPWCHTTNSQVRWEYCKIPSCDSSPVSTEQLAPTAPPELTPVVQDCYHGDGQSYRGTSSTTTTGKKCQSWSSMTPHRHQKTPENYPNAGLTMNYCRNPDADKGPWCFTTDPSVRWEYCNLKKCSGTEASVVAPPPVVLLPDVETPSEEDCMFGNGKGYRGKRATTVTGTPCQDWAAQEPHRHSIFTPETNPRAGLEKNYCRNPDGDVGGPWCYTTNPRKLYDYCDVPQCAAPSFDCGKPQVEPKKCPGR
Experimental: as §1, with “IC50 is that concentration of inhibitor giving 50% inhibition of substrate turnover, under the assay conditions.” left out
as §2, §4

[6] = molecular target: T3, human Factor XIa (Homo sapiens, UniProt P03951); assay: Factor XIa assay (S-2366 substrate); assay type: biochemical; conditions: for IC50: 30 min preincubation, room temperature, tested 0.025-25 μM, Inact. = no inhibition at highest concentration
T3 construct: 50 μL of 5 nM human Factor XIa
T3 sequence (P03951 388-625 limits assumed): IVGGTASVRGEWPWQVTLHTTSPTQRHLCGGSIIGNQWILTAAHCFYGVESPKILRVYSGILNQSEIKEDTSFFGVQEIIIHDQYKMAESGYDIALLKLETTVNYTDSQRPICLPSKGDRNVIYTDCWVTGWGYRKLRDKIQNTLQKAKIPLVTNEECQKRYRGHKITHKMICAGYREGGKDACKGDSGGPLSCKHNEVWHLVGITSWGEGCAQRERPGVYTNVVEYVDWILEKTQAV
T3 sequence (P03951 19-387 partner limits assumed): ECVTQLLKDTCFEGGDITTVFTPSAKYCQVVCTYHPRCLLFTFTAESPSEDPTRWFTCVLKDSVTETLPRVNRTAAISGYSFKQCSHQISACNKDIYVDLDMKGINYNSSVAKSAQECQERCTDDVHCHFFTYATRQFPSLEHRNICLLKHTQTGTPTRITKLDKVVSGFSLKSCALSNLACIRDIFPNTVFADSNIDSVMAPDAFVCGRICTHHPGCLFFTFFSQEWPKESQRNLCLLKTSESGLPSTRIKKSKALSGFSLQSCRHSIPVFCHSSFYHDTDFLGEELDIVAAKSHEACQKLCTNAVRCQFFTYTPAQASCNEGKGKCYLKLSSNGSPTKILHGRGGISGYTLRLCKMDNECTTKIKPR
Experimental: as §1, with “IC50 is that concentration of inhibitor giving 50% inhibition of substrate turnover, under the assay conditions.” left out
as §2, §4

[7] = molecular target: T4, bovine trypsin (Bos taurus, UniProt P00760); assay: Trypsin assay, IC50 (S-2222 substrate); assay type: biochemical; conditions: for IC50: 30 min preincubation, room temperature, tested 0.025-25 μM
T4 sequence (P00760 24-246): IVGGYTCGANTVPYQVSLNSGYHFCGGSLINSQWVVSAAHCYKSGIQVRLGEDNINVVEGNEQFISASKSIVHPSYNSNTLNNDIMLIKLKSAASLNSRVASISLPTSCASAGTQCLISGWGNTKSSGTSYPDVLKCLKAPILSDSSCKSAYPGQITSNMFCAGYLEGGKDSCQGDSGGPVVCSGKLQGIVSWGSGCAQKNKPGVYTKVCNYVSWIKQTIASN
Experimental: as §1, with “IC50 is that concentration of inhibitor giving 50% inhibition of substrate turnover, under the assay conditions.” left out
as §2, §4

[8] = molecular target: T5, Activated human Protein C (Homo sapiens, UniProt P04070); assay: Protein C assay (Pefachrome PC substrate); assay type: biochemical; conditions: for IC50: 30 min preincubation, room temperature, tested 0.025-25 μM, Inact. = no inhibition at highest concentration
T5 construct: from tissue
T5 sequence (P04070 212-461 limits assumed): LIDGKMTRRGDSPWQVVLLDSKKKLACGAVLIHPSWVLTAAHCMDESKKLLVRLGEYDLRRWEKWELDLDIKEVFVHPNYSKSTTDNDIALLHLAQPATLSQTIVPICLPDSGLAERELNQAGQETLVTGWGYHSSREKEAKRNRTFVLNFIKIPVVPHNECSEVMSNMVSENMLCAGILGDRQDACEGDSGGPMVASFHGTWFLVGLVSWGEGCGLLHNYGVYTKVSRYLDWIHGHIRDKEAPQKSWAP
T5 sequence (P04070 43-197 partner limits assumed): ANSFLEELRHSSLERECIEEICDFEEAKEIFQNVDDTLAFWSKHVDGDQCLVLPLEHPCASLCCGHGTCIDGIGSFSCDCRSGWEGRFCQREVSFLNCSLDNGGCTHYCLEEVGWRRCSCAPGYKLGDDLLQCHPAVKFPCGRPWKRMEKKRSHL
Experimental: as §1, with “IC50 is that concentration of inhibitor giving 50% inhibition of substrate turnover, under the assay conditions.” left out
as §2
Enzyme activity was determined using as substrate, Pefachrome PC [δ-carbobenzoloxy-D-lysyl-L-prolyl-L-arginine-p-nitroanilide], purchased from Centerchem, Inc. The substrate was made up in deionized water prior to use. Protac used to activate Protein C was obtained from American Diagnostics.

[9] = molecular target: T6, human kallekrein (Homo sapiens, UniProt P03952); assay: Kallikrein assay (S-2302 substrate); assay type: biochemical; conditions: for IC50: 30 min preincubation, room temperature, tested 0.025-25 μM, Inact. = no inhibition at highest concentration
T6 construct: 50 μL of 4 to 9 nM human kallekrein
T6 sequence (P03952 391-638 limits assumed): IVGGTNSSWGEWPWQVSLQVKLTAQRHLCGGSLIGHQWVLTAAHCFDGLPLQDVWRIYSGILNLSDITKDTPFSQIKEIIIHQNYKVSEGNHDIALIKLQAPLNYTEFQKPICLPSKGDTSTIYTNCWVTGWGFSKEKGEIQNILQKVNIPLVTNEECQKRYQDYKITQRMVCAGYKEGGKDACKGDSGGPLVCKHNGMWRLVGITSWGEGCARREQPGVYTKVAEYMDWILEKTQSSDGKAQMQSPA
T6 sequence (P03952 20-390 partner limits assumed): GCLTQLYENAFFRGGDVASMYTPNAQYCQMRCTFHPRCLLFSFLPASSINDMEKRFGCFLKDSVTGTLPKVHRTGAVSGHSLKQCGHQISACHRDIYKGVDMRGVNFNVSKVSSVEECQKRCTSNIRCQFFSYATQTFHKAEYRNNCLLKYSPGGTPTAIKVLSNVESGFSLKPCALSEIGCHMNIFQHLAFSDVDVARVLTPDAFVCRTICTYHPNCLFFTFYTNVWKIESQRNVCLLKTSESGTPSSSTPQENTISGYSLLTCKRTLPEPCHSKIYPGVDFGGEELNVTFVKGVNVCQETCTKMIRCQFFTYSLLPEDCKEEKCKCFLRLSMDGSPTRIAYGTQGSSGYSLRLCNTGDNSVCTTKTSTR
Experimental: as §1, with “IC50 is that concentration of inhibitor giving 50% inhibition of substrate turnover, under the assay conditions.” left out
as §2, §4

[10] = molecular target: T7, bovine thrombin (Bos taurus, UniProt P00735); assay: Thrombin assay (S-2238 substrate); assay type: biochemical
T7 construct: 50 μL 20 nM bovine thrombin
Experimental: as §1, §2
Enzyme activity was determined using as substrate, S-2238 [D-phenylalanyl-L-pipecolyl-L-arginine-p-nitroanilide dihydrochloride], purchased from Kabi Diagnostica. The substrate was made up in deionized water prior to use.
The assay was run by combining in appropriate wells 50 μL TBS and 50 μL inhibitor in TBS or TBS alone and 50 μL 20 nM bovine thrombin (or TBS as background control), incubating this mixture for 30 minutes at room temperature, adding 50 μL 1 mM S-2238, incubating for an additional 30 minutes at room temperature, then reading the absorbance of the wells at 405 nm on a microtiter plate reader set with background substraction at 650 nm.

[11] = molecular target: T8, human Factor Xa (Homo sapiens, UniProt P00742); assay: Factor Xa assay (Pefachrome Xa substrate); assay type: biochemical; conditions: for IC50: 30 min preincubation, room temperature, tested 0.025-25 μM, Inact. = no inhibition at highest concentration
T8 construct: 50 μL 30 nM human Factor Xa
T8 sequence (P00742 235-488 limits assumed): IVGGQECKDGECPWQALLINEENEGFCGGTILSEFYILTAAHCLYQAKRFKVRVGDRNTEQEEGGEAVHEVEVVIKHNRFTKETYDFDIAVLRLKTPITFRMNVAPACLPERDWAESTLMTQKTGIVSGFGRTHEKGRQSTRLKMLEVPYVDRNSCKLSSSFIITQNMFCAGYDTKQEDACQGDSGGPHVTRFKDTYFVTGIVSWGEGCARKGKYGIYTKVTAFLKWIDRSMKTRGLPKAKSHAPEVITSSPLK
T8 sequence (P00742 41-179 partner limits assumed): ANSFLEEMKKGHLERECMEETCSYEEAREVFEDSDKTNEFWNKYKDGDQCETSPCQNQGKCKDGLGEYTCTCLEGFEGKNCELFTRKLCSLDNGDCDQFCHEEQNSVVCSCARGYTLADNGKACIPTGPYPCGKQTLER
Experimental: as §1, with “IC50 is that concentration of inhibitor giving 50% inhibition of substrate turnover, under the assay conditions.” left out
as §2
Enzyme activity was determined using as substrate, Pefachrome Xa [N-methoxycarbonyl-D-cyclohexylalanyl-L-glycyl-L-arginine p-niroanilide acetate], purchased from Centerchem, Inc. The substrate was made up in deionized water prior to use.

[12] = system: acute pancreatitis induced in animal models; conditions: literature reports; cited from earlier work
[13] = 30 min preincubation, room temperature, tested 0.025-25 μM, Inact. = no inhibition at highest concentration
[14] = [IC50 for Trypsin/IC50 for other enzyme]×100, lower = more trypsin selective

T1 sequence (P08709 213-466 limits assumed): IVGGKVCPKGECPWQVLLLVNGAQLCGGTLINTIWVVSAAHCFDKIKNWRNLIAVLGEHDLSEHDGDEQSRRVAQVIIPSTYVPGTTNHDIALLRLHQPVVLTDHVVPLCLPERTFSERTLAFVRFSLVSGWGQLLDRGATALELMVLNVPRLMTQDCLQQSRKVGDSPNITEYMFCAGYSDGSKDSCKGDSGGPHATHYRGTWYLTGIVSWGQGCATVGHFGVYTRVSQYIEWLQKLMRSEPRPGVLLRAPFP
T1 sequence (P08709 61-212 partner limits assumed): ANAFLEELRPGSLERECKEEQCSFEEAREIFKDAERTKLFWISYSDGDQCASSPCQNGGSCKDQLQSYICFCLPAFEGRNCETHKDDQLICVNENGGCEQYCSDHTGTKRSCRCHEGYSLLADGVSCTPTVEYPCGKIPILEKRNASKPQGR
T1 sequence (P13726 33-295 partner): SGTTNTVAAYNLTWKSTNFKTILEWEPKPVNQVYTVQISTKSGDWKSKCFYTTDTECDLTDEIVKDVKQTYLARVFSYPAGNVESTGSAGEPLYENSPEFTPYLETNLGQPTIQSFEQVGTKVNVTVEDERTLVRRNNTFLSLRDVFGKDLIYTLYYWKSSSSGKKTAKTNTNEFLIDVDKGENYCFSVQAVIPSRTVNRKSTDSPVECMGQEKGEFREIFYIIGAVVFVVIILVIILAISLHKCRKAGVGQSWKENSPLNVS

| SMILES | IC50 [2, 13] | IC50 [5] | IC50 [6] | IC50 [7] | IC50 [8] | IC50 [9] | IC50 [11] | efficacy in the treatment of acute pancreatitis induced in animal models [12] | IC50 [1, 13] | IC50 [10, 13] | other results |
| --- | --- | --- | --- | --- | --- | --- | --- | --- | --- | --- | --- |
| CC(C)(C)OC(=O)N[C@H](CC(=O)O)C(=O)N1CCC[C@H]1C(=O)N[C@H](C=O)CCCNC(=N)N [Compound 12, N-t-buyloxycarbonyl-D-Asp-L-Pro-L-argininal] (Boc-[dD]-Pro-Arg-aldehyde) | > 25 µM | 1.2 µM | > 25 µM | 0.084 µM | > 25 µM | > 25 µM | > 25 µM |  |  |  | IC50 VIIA [1, 13]: Inact.; Calculated % Selectivity VIIa [1, 14]: 0%; Calculated % Selectivity tPA [2, 14]: < 0.3%; Ki [3]: 0.045 µM; IC50 [4, 13]: 17 µM; Calculated % Selectivity UK [4, 14]: 0.5%; Calculated % Selectivity Plasmin [5, 14]: 7%; Calculated % Selectivity XIa [6, 14]: < 0.34%; Calculated % Selectivity Trypsin ([7]; trypsin relative to itself (reference, 100 by definition)): 100%; Calculated % Selectivity Protein C [8, 14]: < 0.3%; Calculated % Selectivity Kallikrein [9, 14]: < 0.34%; IC50 Thrombin [10, 13]: Inact.; Calculated % Selectivity Thrombin [10, 14]: 0%; Calculated % Selectivity Xa [11, 14]: < 0.34% |
| CN(C)C(=O)COC(=O)Cc1ccc(OC(=O)c2ccc(NC(=N)N)cc2)cc1.CS(=O)(=O)O [Foy-305, camostate] |  |  |  |  |  |  |  | effective to varying degrees |  |  |  |
| N=C(N)c1ccc2cc(OC(=O)c3ccc(N=C(N)N)cc3)ccc2c1 [Futhan, 6-amidino-2-naphthyl-4-guanidino benzoate dimethanesulfonate, reference compound] | 0.37 µM |  | < 0.025 µM | < 0.025 µM | 0.084 µM | < 0.025 µM | 6 µM | effective | 1.2 µM | 0.21 µM |  |
| CC(=O)N[C@@H](CC(C)C)C(=O)N[C@@H](CC(C)C)C(=O)N[C@H](C=O)CCCNC(=N)N [Leupeptin, reference compound] |  | 8 µM | 11 µM | 1.7 µM | > 25 µM | 4 µM | 25 µM |  | > 25 µM | 20 µM | IC50 tPA [2, 13]: Inact.; IC50 UK [4, 13]: Inact. |
